Patent publication US20170081383A1, “MELANOCORTIN ANALOGS HAVING ENHANCED ACTIVITY AND TRANSPORT” (Tensive Controls Inc., priority 2012, published 2017)
“Also recorded” adds a separate entry of the source. Positions of bridges follow the written chain, without caps; N, C: chain ends. Non-standard residues stand in square brackets, D forms with d. Residues, ends and D or L forms follow the SMILES beside them. No end group written: not given here. β2Val = β2-Val (beta2-Val), beta-amino acid; d2Nal = N[C@H](Cc1ccc2ccccc2c1)C(=O)O; β3hV = CC(C)[C@H](N)CC(=O)O; β3hP = O=C(O)C[C@@H]1CCCN1; Nle = CCCC[C@H](N)C(=O)O

Tests used:
[1] = system: urethane-anesthetized rats; assay: Cardiovascular activity of melanocortin peptides (MAP, heart rate, ECG); conditions: for Peak Heart Rate Response (BPM) / Peak MAP Response (Δ mm Hg) / Duration: n = 5; for cardiovascular and behavioral side effects (in words): rats
Method: These studies were performed in urethane-anesthetized rats, since anesthesia is required for six-lead ECG monitoring. […] Initial selection of doses was guided by FDA exploratory IND studies with a recommendation for at least a 100-fold excess of the human dose.

[2] = system: LPS-induced cachexia in rats; assay: Lipopolysaccharide (LPS)-induced cachexia assay; format: in vivo, rat; conditions: for peripheral (IP) anti-cachexia activity, feeding (in words): peripheral / intraperitoneal administration after LPS; for blood-brain barrier transport (concluded from peripheral vs ICV activity) / anti-cachectic activity after ICV (IVt) administration (in words): LPS model; for anti-cachectic activity after ICV (IVt) administration (in words): intracerebroventricular administration
Method: The LPS model uses rats were maintained on a 12 h light/dark schedule with ad libitum access to food and water. Animals were handled daily for a minimum of three consecutive days to decrease non-specific handling stress. On the day of the experiment, individually housed animals received intraperitoneal injections of LPS dissolved in 0.5% low-endotoxin BSA, 0.9% saline or 0.5% BSA in 0.9% saline alone, and were returned to their home cage. The drug or control was administered (ICV, IP, or PO, depending on the type of study) 1-hour after LPS injection.
In the experiments described herein, a series of melanocortin receptor antagonist peptides were examined in a bacterial endotoxin inducing cachexia assay. For this assay, a rat is challenged with a single peripheral injection of lipopolysaccharide (LPS). LPS is a heat-stable lipo-polysaccharide, the major component of the outer membrane (capsule) of gram negative bacteria. In non-capsulated strains, it appears as a cell surface […]. LPS produces a strong immune response, including secretion of the proinflammatory cytokines Tumor Necrosis Factor α (TNFα) and interleukin-1 (IL-1). Proinflammatory cytokines are known factors that induce cachexia.
Rats are maintained on a 12-hour light/dark cycle. Animals are handled daily for a minimum of 5 consecutive days to acclimate them to the handling required for the experiment. […] On the day of the experiment, individually housed animals receive intraperitoneal (IP) injections of LPS dissolved in 0.5% low-endotoxin BSA, 0.9% saline or 0.5% BSA in 0.9% saline alone, and returned in their home cage. Melanocortin receptor antagonist peptides were administered (IP or by gavage, depending on the type of study) one hour after the LPS injection. The extent of cachexia is measured by the reduction in food intake, measured every two hours. The cachexia typically lasts only a single day. However, rats lose up to 5% of their body weight during a 12-hour light cycle, making up this loss plus food needed for normal growth during the 12-hour dark cycle. Thus, failure to eat appropriately during a single dark cycle is determinable from the animal's weight and any changes thereof.
A series of melanocortin receptor antagonist peptides were examined in a bacterial toxin inducing cachexia assay. In this assay, a rat was challenged with a single peripheral injection of lipopolysaccharide (LPS), a bacterial toxin that rapidly induces acute cachexia. The extent of cachexia was measured as a reduction in food intake, measured every two hours. The cachexia typically lasts only a single day.

Lewis sarcoma rat model = Lewis sarcoma rat model of cancer cachexia; format: in vivo
Method: This sarcoma is an aggressive form of cancer that produces significant cachexia. Popp et al., Cancer 49(6): 1212-1220 (1982). In the protocol, “treatment” began 8-days after tumor implantation, with a significant decrease in food intake from baseline. Body composition was determined by NMR prior to tumor implantation, and on the final day of the experiment after tumor resection, by ECHO MRI (NMR). Tumor implantation produces cachexia on or about the 6th day. Melanocortin drug therapy or saline was begun after day 8 and continued through day 12.
Prior to tumor implantation, both groups (drug or saline) had similar food intake (˜14 g/day). See FIGS. 2A and B. After tumor implantation, in saline-treated/tumor bearing controls, food intake decreased 35% to 9 g/day by day 8. FIGS. 3A-F. However, treatment with TCMCB01 reversed anorexia to a food intake similar to the control state.

Ac-Nle-c[Asp-His-D-Nal(2′)-Arg-Trp-Lys]-NH2 [SHU9119]
Peak Heart Rate Response (BPM) ([1]; 250 nmol): 3 ± 14 BPM | Peak MAP Response (Δ mm Hg) ([1]; 250 nmol): 16 ± 5 mm Hg

Ac-Nle-c[Asp-Pro-D-Nal(2′)-Arg-Trp-Lys]-β^3-Val-β^3-Pro-NH2 (Ac-[Nle]DP[d2Nal]RWK[β3hV][β3hP]-NH2; lactam 2-7) [TCMCB09]
peripheral (IP) anti-cachexia activity, feeding (in words) [2]: inactive peripherally

Ac-Nle-c[Asp-His-D-Nal(2′)-Arg-Trp-Lys]-D-Pro-D-Val-NH2 (Ac-[Nle]DH[d2Nal]RWK[dP][dV]-NH2; lactam 2-7; SMILES CCCC[C@H](NC(C)=O)C(=O)N[C@H]1CC(=O)NCCCC[C@@H](C(=O)N2CCC[C@@H]2C(=O)N[C@@H](C(N)=O)C(C)C)NC(=O)[C@H](Cc2c[nH]c3ccccc23)NC(=O)[C@H](CCCNC(=N)N)NC(=O)[C@@H](Cc2ccc3ccccc3c2)NC(=O)[C@H](Cc2c[nH]cn2)NC1=O) [TCMCB03]
blood-brain barrier transport (concluded from peripheral vs ICV activity) [2]: failed to cross the blood brain barrier; also recorded: less blood-brain barrier transport activity | anti-cachectic activity after ICV (IVt) administration (in words) [2]: enhanced anti-cachexia; also recorded: superior anti-cachexia activity following ICV administration | peripheral (IP) anti-cachexia activity, feeding (in words) [2]: did not possess as good peripheral

Ac-Nle-c[Asp-Pro-D-Nal(2′)-Arg-Trp-Lys]-D-Val-D-Pro-OH (Ac-[Nle]DP[d2Nal]RWK[dV][dP]-OH; lactam 2-7) [TCMCB07A]
peripheral (IP) anti-cachexia activity, feeding (in words) [2]: equivalent stimulation of feeding

Ac-Nle-c[Asp-Pro-D-Nal(2′)-Arg-Trp-Lys]-β^3-Pro-β^3-Pro-NH2 (Ac-[Nle]DP[d2Nal]RWK[β3hP][β3hP]-NH2; lactam 2-7; SMILES CCCC[C@H](NC(C)=O)C(=O)N[C@H]1CC(=O)NCCCC[C@@H](C(=O)N2CCC[C@H]2CC(=O)N2CCC[C@H]2CC(N)=O)NC(=O)[C@H](Cc2c[nH]c3ccccc23)NC(=O)[C@H](CCCNC(=N)N)NC(=O)[C@@H](Cc2ccc3ccccc3c2)NC(=O)[C@@H]2CCCN2C1=O) [TCMCB10]
blood-brain barrier transport (concluded from peripheral vs ICV activity) [2]: failure to cross the blood-brain barrier | anti-cachectic activity after ICV (IVt) administration (in words) [2]: maintaining direct inhibitory effects | peripheral (IP) anti-cachexia activity, feeding (in words) [2]: no peripheral activity

Ac-Ser-Tyr-Nle-Glu-His-D-Phe-Arg-Trp-Gly-Lys-Pro-Val-NH2 [MT-I]
Duration ([1]; 250 nmol): 0 min | Peak Heart Rate Response (BPM) ([1]; 250 nmol): 0/0 BPM | Peak MAP Response (Δ mm Hg) ([1]; 250 nmol): 0/0 mm Hg

CCCC[C@H](NC(C)=O)C(=O)N[C@H]1CC(=O)NCCCC[C@@H](C(=O)N2CCC[C@@H]2C(=O)N[C@@H](C(N)=O)C(C)C)NC(=O)[C@H](Cc2c[nH]c3ccccc23)NC(=O)[C@H](CCCNC(=N)N)NC(=O)[C@@H](Cc2ccc3ccccc3c2)NC(=O)[C@@H]2CCCN2C1=O [TCMCB02, Ac-Nle-c[Asp-Pro-D-Nal(2′)-Arg-Trp-Lys]-D-Pro-D-Val-NH2] (Ac-[Nle]DP[d2Nal]RWK[dP][dV]-NH2; lactam 2-7 (inferred))
blood-brain barrier transport (concluded from peripheral vs ICV activity) [2]: only has blood-brain barrier transport | cardiovascular and behavioral side effects (in words) [1]: no cardiovascular or dose-limiting behavioral side effects

Ac-Nle-c[Asp-Pro-D-Nal(2′)-Arg-Trp-Lys]-β^2-Val-β^3-Pro-NH2 (Ac-[Nle]DP[d2Nal]RWK[β2Val][β3hP]-NH2; lactam 2-7) [TCMCB08]
blood-brain barrier transport (concluded from peripheral vs ICV activity) [2]: good blood-brain barrier transport | oral activity / gastrointestinal transport (in words) ([2]; gavage (intra-gastric) administration, LPS cachexia): not as much oral activity as TCMCB07; also recorded: no gastrointestinal transport | peripheral (IP) anti-cachexia activity, feeding (in words) [2]: has peripheral activity

CCCC[C@H](NC(C)=O)C(=O)N[C@H]1CC(=O)NCCCC[C@@H](C(=O)O)NC(=O)[C@H](Cc2c[nH]c3ccccc23)NC(=O)[C@H](CCCN=C(N)N)NC(=O)[C@@H](Cc2ccccc2)NC(=O)[C@H](Cc2cnc[nH]2)NC1=O [PT-141, Ac-Nle-c[Asp-His-D-Phe-Arg-Trp-Lys]-COOH]
Duration ([1]; 250 nmol): 140 ± 53 min | Peak Heart Rate Response (BPM) ([1]; 250 nmol): 44 ± 6 BPM | Peak MAP Response (Δ mm Hg) ([1]; 250 nmol): 32 ± 6 mm Hg | lethality ([1]; 900 nmol/kg IV, FIG. 1C): lethal dose | MAP reached after dosing ([1]; 900 nmol/kg IV, baseline MAP 80 mmHg, then precipitously falling): 140 mmHg | heart rate course after dosing ([1]; 900 nmol/kg IV, baseline heart rate 312): progressively fell | ECG tracing (lead 2) finding ([1]; IV 600 nmol/kg, FIG. 1A-B): inverted P-wave

Ac-Nle-c[Asp-Pro-D-Nal(2′)-Arg-Trp-Lys]-D-Thr-D-Pro-D-Thr (Ac-[Nle]DP[d2Nal]RWK[dT][dP][dT]; lactam 2-7) [TCMCB01]
blood-brain barrier transport (concluded from peripheral vs ICV activity) [2]: insufficient blood brain barrier-transport; also recorded: no blood-brain barrier transport | anti-cachectic activity compared to the parent compound, PG932 ([2]; Lewis sarcoma rat model and LPS model): enhanced anti-cachectic activity | anti-cachectic activity after ICV (IVt) administration (in words) [2]: only produced an anti-cachexia effect when given by IVt administration | peripheral (IP) anti-cachexia activity, feeding (in words) [2]: did not have peripheral activity | reversal of cachexia-anorexia (food intake) (Lewis sarcoma rat model; ICV, one time per day, 2 nmol, after day 8 through day 12): reversed the cachexia-anorexia of the tumor burden | dose producing the feeding effect relative to that used with previous synthetic melanocortin antagonists (Lewis sarcoma rat model; Lewis model): one tenth | body weight after tumor implantation (Lewis sarcoma rat model; drug treated group vs saline controls, FIG. 4): significantly greater than saline controls | tumor weight (Lewis sarcoma rat model; equivalent in saline-treated and drug-treated group (p=0.2), FIG. 5): ~40 g | anti-cachectic response compared with AGRP and SHU9119 (Lewis sarcoma rat model; food intake, Lewis sarcoma rats, FIG. 3): as potent as the natural melanocortin system inhibitor Agouti Related Protein (AGRP), and significantly more potent than SHU9119; also recorded: equivalent to AGRP | anti-cachectic effect greater than AGRP (Lewis sarcoma rat model; related study (not shown), Lewis model): ~20% | lean body mass (NMR after tumor excision) (Lewis sarcoma rat model; statistical significance only p=0.05, FIG. 6): increased lean body mass | Duration ([1]; 600 nmol): 0 min | Peak Heart Rate Response (BPM) ([1]; 600 nmol): 0/0 BPM | Peak MAP Response (Δ mm Hg) ([1]; 600 nmol): 0/0 mm Hg | cardiovascular and behavioral side effects (in words) [1]: no cardiovascular or dose-limiting behavioral side effects; also recorded: little cardiovascular activity

Ac-Nle-c[Asp-Pro-D-Nal(2′)-Arg-Trp-Lys]-β^3-Pro-β^3-Val-NH2 (Ac-[Nle]DP[d2Nal]RWK[β3hP][β3hV]-NH2; lactam 2-7) [TCMCB06]
food intake, 24 hours after LPS challenge ([2]; 0.2 mg/kg intraperitoneally, FIG. 8A): ate significantly less food than the other drug candidates | body weight (percent of pre-LPS baseline), 24 hours after LPS challenge ([2]; 0.2 mg/kg intraperitoneally, FIG. 8B): no weight gain | molar activity relative to TCMCB02 ([2]; ICV administration, LPS-induced cachexia): 10 fold | anti-cachectic activity after ICV (IVt) administration (in words) [2]: molar activity equivalent to TCMCB02 | peripheral (IP) anti-cachexia activity, feeding (in words) [2]: only TCMCB05 (β^3-Pro-β^2-Val) had IP anti-cachexia activity; also recorded: only TCMCB05 had peripheral anti-cachexia activity

Ac-Nle-c[D-Asp-Pro-D-Nal(2′)-Arg-Trp-D-Lys]-D-Pro-D-Val-NH2 (Ac-[Nle][dD]P[d2Nal]RW[dK][dP][dV]-NH2; lactam 2-7) [TCMCB04]
blood-brain barrier transport (concluded from peripheral vs ICV activity) [2]: eliminated blood brain barrier transport; also recorded: no transport across the blood-brain barrier | anti-cachectic activity after ICV (IVt) administration (in words) [2]: superior anti-cachectic activity compared to the parent compound | peripheral (IP) anti-cachexia activity, feeding (in words) [2]: No difference was observed between the peptide and saline
